Source: patent publication US20120028967A1 (priority 2009, published 2012)
Where a name gives a salt, the structure may show the parent alone.

Biological target: α7-subtype of nicotinic receptors (Rattus norvegicus, UniProt Q05941)
Assay: biochemical
Format: binding

Sequence of α7-subtype of nicotinic receptors (Q05941 23-502): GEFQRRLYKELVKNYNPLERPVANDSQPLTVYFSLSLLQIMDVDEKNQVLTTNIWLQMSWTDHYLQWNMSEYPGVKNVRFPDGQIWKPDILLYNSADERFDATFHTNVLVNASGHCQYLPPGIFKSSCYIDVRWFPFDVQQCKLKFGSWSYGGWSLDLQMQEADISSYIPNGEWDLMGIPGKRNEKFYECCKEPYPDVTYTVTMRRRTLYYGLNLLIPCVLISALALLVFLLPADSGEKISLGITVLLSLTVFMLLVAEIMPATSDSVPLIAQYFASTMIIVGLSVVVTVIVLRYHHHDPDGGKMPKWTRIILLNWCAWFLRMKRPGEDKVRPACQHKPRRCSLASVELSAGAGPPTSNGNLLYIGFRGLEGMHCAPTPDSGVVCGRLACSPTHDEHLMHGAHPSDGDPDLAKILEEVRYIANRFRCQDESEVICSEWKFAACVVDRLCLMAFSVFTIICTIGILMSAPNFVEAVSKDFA

SMILES	IC50
Brc1cnc(N2CCN3CCC2CC3)nc1 [Compound 1, 4-(5-Bromo-pyrimidin-2-yl)-1,4-diaza-bicyclo[3.2.2]nonane fumaric acid salt]	280 nM
Ic1cnc(N2CCN3CCC2CC3)nc1 [Compound 2, 4-(5-Iodopyrimidin-2-yl)-1,4-diazabicyclo[3.2.2]nonane fumaric acid salt]	38 nM
Clc1cnc(N2CCN3CCC2CC3)nc1 [Compound 3, 4-(5-Chloropyrimidin-2-yl)-1,4-diazabicyclo[3.2.2]nonane fumaric acid salt]	190 nM
